# Measured values published in publication PMC6268628, “Steroidal and Phenolic Glycosides from the Bulbs of Lilium pumilum DC and Their Potential Na^+/K^+ ATPase Inhibitory Activity” (Molecules, 2012).
# Read-outs that look alike come from different tables or passages of the source.
# Biological target: T1, Ouabain sensitive dog kidney Na^+/K^+ ATPase (Canis lupus familiaris, UniProt P50997)
# T1 construct: Ouabain sensitive dog kidney Na^+/K^+ ATPase was obtained from Sigma (Shanghai, China); purchased Sigma (Shanghai, China); host or cells: dog kidney (tissue-derived enzyme preparation)
# Assay: Assay of Na+/K+ ATPase activity (released inorganic phosphate, absorbance at 660 nm)
# Assay type: biochemical
# Procedure: Specific rotation measurements were recorded on a Perkin-Elmer 242 MC polarimeter. UV spectra were recorded on a Hewlett-Packard HP-845 UV-VIS spectrophotometer. IR spectra were recorded on a Nicolet 470 spectrometer and MS on a Varian MAT-212 mass spectrometer and a Shimadzu GC-MS model QP2010 Plus spectrophotometer, respectively. NMR spectra were recorded on a Bruker AM-400 spectrameter (400 MHz for ^1H-NMR) or a Bruker DRX-500 (500 MHz for ^1H-NMR) spectrameter using standard Bruker pulse programs. Chemical shifts are given as δ values with reference to tetramethylsilane (TMS) as internal standard. Column chromatography separations were carried out on silica gel (200–300 mesh, Qingdao Haiyang Chemical Co. Ltd, Qingdao, China), ODS (50 mesh, AA12S50, YMC), Diaion HP-20 (Pharmacia, Peapack, NJ, USA) and Sephadex LH-20 (Pharmacia, Peapack, NJ, USA). Ouabain sensitive dog kidney Na^+/K^+ ATPase was obtained from Sigma (Shanghai, China). All other chemicals used were of biochemical reagent grade.
# The Na^+/K^+ ATPase activity was assayed according to the reported method with some modification. […] The released inorganic phosphate was determined by the following method. […] After 25 min, the absorbance at 660 nm was recorded.
Structure (SMILES),"IC50 (0.02 units enzyme, 3 mM ATP, pH 7.3, 37 °C, 20 min, 5% DMSO, read-out: IC50, inhibitory activity on Na^+/K^+ ATPase) [µM]",IC50 [µM]
"CC1CCC2(OC1)OC1CC3C4CC(=O)C5CC(OC6OC(CO)C(O)C(O)C6OC6OC(C)C(O)C(O)C6O)CCC5(C)C4CCC3(C)C1C2C [Compound 3, (25R)-3β-hydroxyl-5α-spirostan-6-one 3-O-α-L-rhamnopyranosyl-(1→2)-β-D-glucopyranoside]",73,–
"C[C@@H]1O[C@@H](O[C@H]2C[C@@H](O)[C@]3(CO)[C@H]4[C@H](O)C[C@]5(C)[C@@H](C6=CC(=O)OC6)CC[C@]5(O)[C@@H]4CC[C@]3(O)C2)[C@H](O)[C@H](O)[C@H]1O [Ouabain, reference compound]",–,1
